Laboratory results reported in patent US8933075B2, “Compounds useful as antiviral agents, compositions, and methods of use” (priority 2010, dated 2015).

These molecules were tested on A/Udorn/72 (H3N2) virus (assay: Plaque assay in MDCK cells: EC50 by reduction of plaque number). Conditions: not given.
Format: cell-based, influenza virus

Row | Structure (SMILES) | EC50
1 | COc1cccc(-c2cc(CCCO)c(/C=C3\SC(=S)N(C4C5CC6CC(C5)CC4C6)C3=O)[nH]2)c1 (stereo not drawn) [Compound 233] | < 100 nM
2 | COc1cccc(-c2cc(CCCO)c(/C=C3\SC(=S)N(C4C5CC6CC(C5)CC4C6)C3=O)[nH]2)c1 (stereo not drawn) [Compound 238] | 250 to 1000 nM

Same assay, conditions: MDCK

Row | Structure (SMILES) | EC50
3 | O=C1/C(=C/c2oc(-c3ccc(Cl)cc3)cc2CCCOC[C@@H](O)CO)SC(=S)N1C1CC2CCC1C2 (stereo partly drawn) [Compound 203, (Z)-3-(bicyclo[2.2.1]heptan-2-yl)-5-((3-(3-((S)-2,3-dihydroxypropoxy)propyl)-5-(4′-chlorophenyl)-furan-2-yl)methylene)-2-thioxothiazolidin-4-one] | < 100 nM
4 | COc1cc(OC)cc(-c2cc(CCCOC(=O)[C@H](CC(C)C)NC(=O)OCC3c4ccccc4-c4ccccc43)c(/C=C3\SC(=S)N(C4CC5CCC4C5)C3=O)o2)c1 (stereo partly drawn) [Compound 141] | 250 to 1000 nM
5 | O=C1/C(=C/c2oc(-c3ccc(C(F)(F)F)cc3)cc2CCCCCO)SC(=S)N1C1C2CC3CC(C2)CC1C3 (stereo not drawn) [Compound 338] | < 100 nM
6 | O=C1/C(=C/c2ccco2)SC(=S)N1C1C2CC3CC(C2)CC1C3 (stereo not drawn) [Compound 209, (Z)-3-(adamantan-2-yl)-5-(furan-2-ylmethylene)-2-thioxothiazolidin-4-one] | 250 to 1000 nM
7 | COc1cccc(-c2cc(CCCCCO)c(/C=C3\SC(=S)N(C4CC5CCC4C5)C3=O)[nH]2)c1 (stereo not drawn) [Compound 235] | < 100 nM
8 | COc1cccc(-c2cc(CCCCCO)c(/C=C3\SC(=S)N(C4C5CC6CC(C5)CC4C6)C3=O)n2C)c1 (stereo not drawn) [Compound 263] | 250 to 1000 nM
9 | COc1cccc(-c2cc(CCCO)c(/C=C3\SC(=S)N(C4CC5CCC4C5)C3=O)o2)c1 (stereo not drawn) [Compound 353] | < 100 nM
10 | CC(C)(C)OC(=O)N[C@@H](CC(N)=O)C(=O)OCCCc1cc(-c2ccc(F)cc2)oc1/C=C1\SC(=S)N(C2CC3CCC2C3)C1=O (stereo partly drawn) [Compound 147] | < 100 nM
11 | O=C1/C(=C/c2ccc(-c3ccc(O)cc3)o2)SC(=S)N1C1C2CC3CC(C2)CC1C3 (stereo not drawn) [Compound 15] | < 100 nM
12 | COc1cccc(-c2cc(CCCO)c(/C=C3\SC(=S)N(C4CC5CCC4C5)C3=O)n2C)c1 (stereo not drawn) [Compound 264] | 250 to 1000 nM
13 | O=C1/C(=C/c2ccc(-c3ccc(Cl)cc3)o2)SC(=S)N1C1CCCC1 [Compound 48] | < 100 nM
14 | O=C1/C(=C/c2[nH]c(-c3ccc(Cl)cc3)cc2CCCCCO)SC(=S)N1C1C2CC3CC(C2)CC1C3 (stereo not drawn) [Compound 236] | < 100 nM
15 | COC(=O)/C=C/c1ccc(/C=C2\SC(=S)N(C3CC4CCC3C4)C2=O)o1 (stereo not drawn) [Compound 221, (E)-Methyl 3-(5-((Z)-(3-(bicyclo[2.2.1]heptan-2-yl)-4-oxo-2-thioxothiazolidin-5-ylidene)methyl)-furan-2-yl)acrylate] | < 100 nM
16 | O=C1/C(=C/c2ccco2)SC(=S)N1C1CCCCC1 [Compound 220] | 250 to 1000 nM
17 | COc1ccc(-c2ccc(/C=C3\SC(=S)N(C4CC5CCC4C5)C3=O)o2)cc1C(=O)O (stereo not drawn) [Compound 36] | < 100 nM
18 | COc1cc(O)cc(-c2cc(CCCOC(=O)[C@H](CC(=O)OC(C)(C)C)NC(=O)OC(C)(C)C)c(/C=C3\SC(=S)N(C4CC5CCC4C5)C3=O)o2)c1 (stereo partly drawn) [Compound 149] | < 100 nM
19 | O=C1/C(=C/c2oc(-c3ccc(F)cc3)cc2CCCN2CCOCC2)SC(=S)N1C1CC2CCC1C2 (stereo not drawn) [Compound 180] | < 100 nM
20 | COc1cccc(-c2cc(CCCCCOC(=O)[C@H](CC(N)=O)NC(=O)OC(C)(C)C)c(/C=C3\SC(=S)N(C4CC5CCC4C5)C3=O)s2)c1 (stereo partly drawn) [Compound 313] | < 100 nM
21 | COC(=O)c1cc(-c2ccc(/C=C3\SC(=S)N(C4C5CC6CC(C5)CC4C6)C3=O)o2)ccc1OC (stereo not drawn) [Compound 13] | < 100 nM
22 | CC(=O)OCCCc1cc(-c2ccc(Cl)cc2)[nH]c1/C=C1\SC(=S)N(C2CC3CCC2C3)C1=O (stereo not drawn) [Compound 231] | < 100 nM
23 | O=C1/C(=C/c2ccc(-c3c(O)c4cc(Cl)ccc4oc3=O)o2)SC(=S)N1C1CC2CCC1C2 (stereo not drawn) [Compound 322] | < 100 nM

Row | Structure (SMILES) | EC50
24 | NCCCc1cc(-c2ccc(F)cc2)oc1/C=C1\SC(=S)N(C2C3CC4CC(C3)CC2C4)C1=O (stereo not drawn) [Compound 126] | < 100 nM
25 | COc1ccc(-c2ccc(/C=C3\SC(=S)N(C4CC5CCC4C5)C3=O)o2)cc1OCC(=O)N1CCC[C@H]1C(=O)O (stereo partly drawn) [Compound 80] | < 100 nM
26 | COc1ccc2c(O)c(-c3ccc(/C=C4\SC(=S)N(C5C6CC7CC(C6)CC5C7)C4=O)o3)c(=O)oc2c1 (stereo not drawn) [Compound 74] | 100 to 250 nM
27 | COc1cc(O)cc(-c2ccc(/C=C3\SC(=S)N(C4C5CC6CC(C5)CC4C6)C3=O)o2)c1 (stereo not drawn) [Compound 18] | < 100 nM
28 | COc1cc(OC)cc(-c2cc(CCCNC(=O)[C@H](CC(=O)OC(C)(C)C)NC(=O)OC(C)(C)C)c(/C=C3\SC(=S)N(C4CC5CCC4C5)C3=O)o2)c1 (stereo partly drawn) [Compound 158] | < 100 nM
29 | COc1cc(OC)cc(-c2cc(CCCNC(=O)[C@H](Cc3ccc(OC(C)(C)C)cc3)NC(=O)OC(C)(C)C)c(/C=C3\SC(=S)N(C4CC5CCC4C5)C3=O)o2)c1 (stereo partly drawn) [Compound 160] | < 100 nM
30 | O=C1/C(=C/c2ccc(-c3ccc(-c4ccccc4)cc3)o2)SC(=S)N1C1CC2CCC1C2 (stereo not drawn) [Compound 226] | < 100 nM
31 | NCCCc1cc(-c2ccc(F)cc2)oc1/C=C1\SC(=S)N(C2CC3CCC2C3)C1=O (stereo not drawn) [Compound 127] | < 100 nM
32 | O=C1/C(=C/c2oc(-c3ccc(Cl)cc3)cc2CCCCO)SC(=S)N1C1C2CC3CC(C2)CC1C3 (stereo not drawn) [Compound 335] | < 100 nM
33 | COc1cc(OC)cc(-c2cc(CCCN(CC(=O)O)CC(=O)O)c(/C=C3\SC(=S)N(C4CC5CCC4C5)C3=O)o2)c1 (stereo not drawn) [Compound 133] | 100 to 250 nM
34 | COc1cc(OCC(=O)O)cc(-c2ccc(/C=C3\SC(=S)N(C4C5CC6CC(C5)CC4C6)C3=O)o2)c1 (stereo not drawn) [Compound 38] | < 100 nM
35 | O=C(O)c1ccc(-c2ccc(/C=C3\SC(=S)N(C4CC5CCC4C5)C3=O)o2)cc1 (stereo not drawn) [Compound 4] | < 100 nM
36 | O=C1/C(=C/c2oc(-c3ccc(OC(F)(F)F)cc3)cc2CCCCCO)SC(=S)N1C1CC2CCC1C2 (stereo not drawn) [Compound 340] | < 100 nM
37 | COc1ccc(-c2cc(CCCO)c(/C=C3\SC(=O)N(C4CC5CCC4C5)C3=O)o2)cc1OCC(=O)N1CCC[C@H]1C(=O)O (stereo partly drawn) [Compound 349] | < 100 nM
38 | O=C1/C(=C/c2oc(-c3ccc(C(F)(F)F)cc3)cc2CCCCCO)SC(=S)N1C1CC2CCC1C2 (stereo not drawn) [Compound 337] | < 100 nM
39 | COc1ccc(-c2ccc(/C=C3\SC(=S)N(C4C5CC6CC(C5)CC4C6)C3=O)o2)cc1C(=O)O (stereo not drawn) [Compound 34] | < 100 nM
40 | COc1ccc2oc(=O)c(CCC(=O)OCCCc3cc(-c4ccc(Cl)cc4)oc3/C=C3\SC(=S)N(C4CC5CCC4C5)C3=O)c(O)c2c1 (stereo not drawn) [Compound 336] | < 100 nM
41 | COc1ccc(-c2ccc(/C=C3\SC(=S)N(C4CC5CCC4C5)C3=O)o2)cc1O (stereo not drawn) [Compound 10] | < 100 nM
42 | COCOc1cc(=O)oc2ccc(-c3ccc(/C=C4\SC(=S)N(C5C6CC7CC(C6)CC5C7)C4=O)o3)cc12 (stereo not drawn) [Compound 75] | 250 to 1000 nM
43 | COc1cccc(-c2cc(CCCOC(=O)[C@@H](CC(N)=O)NC(=O)OC(C)(C)C)c(/C=C3\SC(=S)N(C4C5CC6CC(C5)CC4C6)C3=O)o2)c1 (stereo partly drawn) [Compound 354] | < 100 nM
44 | COc1ccc(-c2ccc(/C=C3\SC(=S)N(C4CC5CCC4C5)C3=O)o2)cc1OCC(=O)N[C@@H](Cc1ccccc1)C(=O)O (stereo partly drawn) [Compound 79] | < 100 nM

Row | Structure (SMILES) | EC50
45 | O=C1/C(=C/c2oc(-c3ccc(Cl)cc3)cc2CCCN2CCOCC2)SC(=S)N1C1C2CC3CC(C2)CC1C3 (stereo not drawn) [Compound 184] | < 100 nM
46 | O=C1/C(=C/c2cc(CCCCCO)c(-c3ccc(Cl)cc3)s2)SC(=S)N1C1C2CC3CC(C2)CC1C3 (stereo not drawn) [Compound 283] | < 100 nM
47 | O=C1/C(=C/c2cn(-c3ccc([N+](=O)[O-])cc3)cn2)SC(=S)N1C1CCCCCCCCCCC1 [Compound 64] | < 100 nM
48 | COc1cccc(-c2cc(C#CCCCO)c(/C=C3\SC(=S)N(C4CC5CCC4C5)C3=O)s2)c1 (stereo not drawn) [Compound 292] | < 100 nM
49 | COc1cc(OC)cc(-c2cc(CCCCCO)c(/C=C3\SC(=S)N(C4CC5CCC4C5)C3=O)o2)c1 (stereo not drawn) [Compound 109] | < 100 nM
50 | COC(=O)/C=C/c1ccc(/C=C2\SC(=S)N(C3C4CC5CC(C4)CC3C5)C2=O)o1 (stereo not drawn) [Compound 224] | < 100 nM
51 | COc1cc(OC)cc(-c2ccc(/C=C3\SC(=S)N(C4CC5CCC4C5)C3=O)[nH]2)c1 (stereo not drawn) [Compound 58] | < 100 nM
52 | COc1cc(OC)cc(-c2cc(CCC(=O)O)c(/C=C3\SC(=S)N(C4CC5CCC4C5)C3=O)o2)c1 (stereo not drawn) [Compound 132] | < 100 nM
53 | COc1cccc(-c2cc(CCCCCO)c(/C=C3\SC(=S)N(C4C5CC6CC(C5)CC4C6)C3=O)s2)c1 (stereo not drawn) [Compound 279] | < 100 nM
54 | COc1cc(OC)cc(-c2cc(CCCOC(=O)[C@@H](N)Cc3ccccc3)c(/C=C3\SC(=S)N(C4CC5CCC4C5)C3=O)o2)c1 (stereo partly drawn) [Compound 153] | < 100 nM
55 | O=C1/C(=C/c2sc(-c3cccc(Cl)c3)cc2CCCCCO)SC(=S)N1C1CC2CCC1C2 (stereo not drawn) [Compound 277] | < 100 nM
56 | CC(C)(C)N1C(=O)C[C@@H](C(=O)OCCCCCc2cc(-c3cccc(Cl)c3)sc2/C=C2\SC(=S)N(C3C4CC5CC(C4)CC3C5)C2=O)NC1=O (stereo partly drawn) [Compound 309] | < 100 nM
57 | O=C1/C(=C/c2sc(-c3ccc(Cl)cc3)cc2-c2ccc(Cl)cc2)SC(=S)N1C1C2CC3CC(C2)CC1C3 (stereo not drawn) [Compound 275] | < 100 nM
58 | COc1ccc(-c2ccc(/C=C3\SC(=S)N(C4CC5CCC4C5)C3=O)o2)cc1C(=O)N1CCC[C@H]1C(=O)O (stereo partly drawn) [Compound 89] | < 100 nM
59 | O=C1/C(=C/c2[nH]c(-c3ccc(Cl)cc3)cc2CCCCCO)SC(=S)N1C1CC2CCC1C2 (stereo not drawn) [Compound 230] | < 100 nM
60 | O=C1/C(=C/c2coc3ccc(Br)cc3c2=O)SC(=S)N1C1C2CC3CC(C2)CC1C3 (stereo not drawn) [Compound 210, 3-adamantan-2-yl-5-(6-bromo-4-oxo-4H-chromen-3-ylmethylene)-2-thioxo-thiazolidin-4-one] | < 100 nM
61 | O=C1/C(=C/c2oc(-c3cccc(F)c3)cc2CCCCCO)SC(=S)N1C1CC2CCC1C2 (stereo not drawn) [Compound 343] | < 100 nM
62 | COc1cc(OC)cc(-c2cc(CCCOC(C)=O)c(/C=C3\SC(=S)N(C4CC5CCC4C5)C3=O)o2)c1 (stereo not drawn) [Compound 97] | < 100 nM
63 | COc1ccc2oc(=O)c(-c3ccc(/C=C4\SC(=S)N(C5C6CC7CC(C6)CC5C7)C4=O)o3)c(O)c2c1 (stereo not drawn) [Compound 70] | 100 to 250 nM
